Experimental findings from patent US9249517B2, “Process for production of reduced glutathione” (Kyowa Hakko Bio Co., Ltd., priority 2009, dated 2016) are described below.

Some results are limits rather than exact numbers.

Data set [1] is described as follows: Solubility of oxidized glutathione in water. In kind it is physicochemical. The text has this: Utilizing this characteristic, a solution of oxidized glutathione with concentration beyond saturation solubility can be prepared. […] While the concentration of the supersaturated aqueous oxidized glutathione solution containing a conducting agent other than acid is not limited as long as it can maintain supersaturation state, it is 50 g/L or more, preferably 100 g/L or more, more preferably 150 g/L or more, further preferably 200 g/L or more, most preferably 300 g/L or more.

The conditions of data set [2]: 25° C., 24-36 hr. The protocol: Using an aqueous reduced glutathione solution (100 g/L, pH 2.90) and sulfuric acid, aqueous reduced glutathione solutions (100 g/L) adjusted to pH 0.6, 1.2 and 2.0 were produced.
Each solution was preserved at 25° C. for 24-36 hr, and the residual amount of reduced glutathione was quantified by high performance liquid chromatography (HPLC) under the following conditions. […] As for the impurity, the total amount of the substances other than reduced glutathione and oxidized glutathione was quantified under the following HPLC conditions, and the concentration (g/L) converted to reduced glutathione was calculated.
HPLC Conditions • column: Nucleosil 100-5 C18 φ4.6×150 mm • column temperature: 40° C. • buffer: 10% acetonitrile solution containing 0.405% sodium 1-heptanesulfonate (adjusted to pH 2.0 with phosphoric acid) • flow rate: 1.0 mL/min • detector: UV detector (wavelength 210 nm)

Turning to oxidized glutathione, the “stability of supersaturation state” value in data set [1] (ambient temperature, requires several days before crystallizing) was “stable at ambient temperature”. Also, the supersaturation solubility result in data set [1] (once dissolved, aqueous solution) is on record as “over 300 g/L”. Further, the “saturation solubility in water” value in data set [1] (water, ambient temperature (25° C.)) was no more than 20 mg/mL.
For the compound `N[C@@H](CCC(=O)N[C@@H](CS)C(=O)NCC(=O)O)C(=O)O` [reduced glutathione], the “reduced glutathione residual ratio” value in data set [2] (100 g/L aqueous solution at pH 2.0 or less (pH 0.6, 1.2, 2.0, sulfuric acid) vs pH 2.90, FIG. 1A) is recorded as “lower reduced glutathione residual ratio as compared to a solution at pH 2.90”. Moreover, in data set [2] (100 g/L aqueous solution at pH 2.0 or less vs pH 2.90, FIG. 1B), the “increased amount of impurity due to hydrolysis” value is listed as “higher increased amount of impurity due to hydrolysis as compared to a solution at pH 2.90”.
